This passage reports EC-1 (MIC) and PA-7 (MIC) results from patent publication US8846933B2, “N-link hydroxamic acid derivatives useful as antibacterial agents” (Pfizer Inc., priority 2009, dated 2014).

Assay [1] deals with Escherichia coli EC-1: VOGEL, mouse virulent. The assay can be described thus: MIC determination (CLSI), strain EC-1. As to conditions: strain EC-1; generated in the same manner as in Table 4; unit assumed. The format is cell-based. As to the method:
(§1) The in vitro antibacterial activity of compounds described in the Examples was evaluated by minimum inhibitory concentration (MIC) testing according to Clinical and Laboratory Standards Institute (CLSI, formerly NCCLS) guidelines. See: Clinical and Laboratory Standards Institute. Methods for Dilution Antimicrobial Susceptibility Tests for Bacteria that Grow Aerobically; Approved Standard-Seventh Edition. CLSI document M7-A7 [ISBN 1-56238-587-9]. Clinical and Laboratory Standards Institute, 940 West Valley Road, Suite 1400, Wayne, Pa. 19087-1898 USA, 2006; also Clinical and Laboratory Standards Institute. Performance Standards for Antimicrobial Susceptibility Testing; Eighteenth Informational Supplement. CLSI document M100-S18 [ISBN1-56238-653-0].Clinical and Laboratory Standards Institute.
(§2) The following bacterial strains were used in these MIC determinations:
3) Escherichia coli EC-1: VOGEL, mouse virulent labeled as EC-1 in Tables 4 and 5;

The test system of assay [2] is Pseudomonas aeruginosa UI-18: Wild-type (PA-7). In words: MIC determination (CLSI), strain PA-7. In kind it is cell-based. Particulars: strain PA-7; generated in the same manner as in Table 4; unit assumed. Here is the method:
as §1, §2
1) Pseudomonas aeruginosa UI-18: Wild-type, labeled as PA-7 in Tables 4, and 5;

`CC(CCn1ccc(-c2ccc(OCCCn3cncn3)cc2)cc1=O)(C(=O)NO)S(C)(=O)=O` (centres unmarked) [Example 92, N-hydroxy-2-methyl-2-(methylsulfonyl)-4-[2-oxo-4-{4-[3-(1H-1,2,4-triazol-1-yl)propoxy]phenyl}pyridin-1(2H)-yl]butanamide]: in assay [1], the EC-1 (MIC) turned out to be 8 µg/mL. The compound further yielded a PA-7 (MIC) in assay [2] of 16 µg/mL.
In assay [1], `CC(CCn1ccc(-c2ccc(OCCCN3CCC(F)(F)C3)cc2)cc1=O)(C(=O)NO)S(C)(=O)=O` (centres unmarked) [Example 93, 4-[4-{4-[3-(3,3-difluoropyrrolidin-1-yl)propoxy]phenyl}-2-oxopyridin-1(2H)-yl]-N-hydroxy-2-methyl-2-(methylsulfonyl)butanamide] gave an EC-1 (MIC) of 1 µg/mL. This compound also had a PA-7 (MIC) in assay [2] of 8 µg/mL.
On the same counts, the results for `CC(CCn1ccc(-c2ccc(OCCN3CCOCC3)cc2)cc1=O)(C(=O)NO)S(C)(=O)=O` (centres unmarked) [Example 94] are 2 µg/mL and 4 µg/mL.
On the same counts, the results for `CC(CCn1ccc(-c2ccc(-c3cc(CO)no3)cc2)cc1=O)(C(=O)NO)S(C)(=O)=O` (centres unmarked) [Example 95, N-hydroxy-4-[4-{4-[3-(hydroxymethyl)isoxazol-5-yl]phenyl}-2-oxopyridin-1(2H)-yl]-2-methyl-2-(methylsulfonyl)butanamide] are 8 µg/mL and 8 µg/mL.
The compound `CC(CCn1ccc(-c2cccc(O)c2F)cc1=O)(C(=O)NO)S(C)(=O)=O` (centres unmarked) [Example 96] yielded an EC-1 (MIC) in assay [1] of 64 µg/mL. Moreover, in assay [2], the PA-7 (MIC) is > 64 µg/mL.
Taken in the same sequence, the figures for `CC(CCn1ccc(-c2ccc(O)cc2)cc1=O)(C(=O)NO)S(C)(=O)=O` (centres unmarked) [Example 97, N-hydroxy-4-[4-(4-hydroxyphenyl)-2-oxopyridin-1(2H)-yl]-2-methyl-2-(methylsulfonyl)butanamide] were > 64 µg/mL and > 64 µg/mL.
In turn, `CC(CCn1ccc(-c2ccccc2)cc1=O)(C(=O)NO)S(C)(=O)=O` (centres unmarked) [Example 98, N-hydroxy-2-methyl-2-(methylsulfonyl)-4-(2-oxo-4-phenylpyridin-1(2H)-yl)butanamide] had an EC-1 (MIC) in assay [1] of 64 µg/mL. This compound also displayed a PA-7 (MIC) in assay [2] of 32 µg/mL.
With `CC(=O)c1ccc(-c2ccn(CCC(C)(C(=O)NO)S(C)(=O)=O)c(=O)c2)cc1O` (centres unmarked) [Example 99, 4-[4-(4-acetyl-3-hydroxyphenyl)-2-oxopyridin-1(2H)-yl]-N-hydroxy-2-methyl-2-(methylsulfonyl)butanamide], in assay [1], the EC-1 (MIC) was determined as 8 µg/mL. The compound further gave a PA-7 (MIC) in assay [2] of 16 µg/mL.
Taken in the same sequence, the figures for `CC(CCn1ccc(-c2ccc(OCCCN3CCCC(F)(F)C3)cc2)cc1=O)(C(=O)NO)S(C)(=O)=O` (centres unmarked) [Example 100, 4-[4-{4-[3-(3,3-difluoropiperidin-1-yl)propoxy]phenyl}-2-oxopyridin-1(2H)-yl]-N-hydroxy-2-methyl-2-(methylsulfonyl)butanamide] were 1 µg/mL and 8 µg/mL.
On the same counts, the results for `CC(CCn1ccc(-c2ccc([N+](=O)[O-])cc2)cc1=O)(C(=O)NO)S(C)(=O)=O` (centres unmarked) [Example 101, N-hydroxy-2-methyl-2-(methylsulfonyl)-4-[4-(4-nitrophenyl)-2-oxopyridin-1(2H)-yl]butanamide] are 8 µg/mL and 4 µg/mL.
Taken in the same sequence, the figures for `CNS(=O)(=O)c1ccc(-c2ccn(CCC(C)(C(=O)NO)S(C)(=O)=O)c(=O)c2)cc1` (centres unmarked) [Example 102, N-hydroxy-2-methyl-4-[4-{4-[(methylamino)sulfonyl]phenyl}-2-oxopyridin-1(2H)-yl]-2-(methylsulfonyl)butanamide] were > 64 µg/mL and > 64 µg/mL.
Turning to `CCNC(=O)c1cc(F)cc(-c2ccn(CCC(C)(C(=O)NO)S(C)(=O)=O)c(=O)c2)c1` (centres unmarked) [Example 103, N-ethyl-3-fluoro-5-{1-[4-(hydroxyamino)-3-methyl-3-(methylsulfonyl)-4-oxobutyl]-2-oxo-1,2-dihydropyridin-4-yl}benzamide], in assay [1], the EC-1 (MIC) is > 64 µg/mL. The PA-7 (MIC) in assay [2] was > 64 µg/mL.
As to `Cn1ccnc1-c1ccc(-c2ccn(CCC(C)(C(=O)NO)S(C)(=O)=O)c(=O)c2)cc1` (centres unmarked) [Example 104, N-hydroxy-2-methyl-4-{4-[4-(1-methyl-1H-imidazol-2-yl)phenyl]-2-oxopyridin-1(2H)-yl}-2-(methylsulfonyl)butanamide], the EC-1 (MIC) in assay [1] was > 64 µg/mL. Also, in assay [2], the PA-7 (MIC) was > 64 µg/mL.
Take `CCOc1ccc(Cl)cc1-c1ccn(CCC(C)(C(=O)NO)S(C)(=O)=O)c(=O)c1` (centres unmarked) [Example 105, 4-[4-(5-chloro-2-ethoxyphenyl)-2-oxopyridin-1(2H)-yl]-N-hydroxy-2-methyl-2-(methylsulfonyl)butanamide]: the EC-1 (MIC) in assay [1] is > 64 µg/mL. The PA-7 (MIC) in assay [2] was > 64 µg/mL.
In the case of `CN(C)S(=O)(=O)c1ccc(-c2ccn(CCC(C)(C(=O)NO)S(C)(=O)=O)c(=O)c2)cc1` (centres unmarked) [Example 106, 4-[4-{4-[(dimethylamino)sulfonyl]phenyl}-2-oxopyridin-1(2H)-yl]-N-hydroxy-2-methyl-2-(methylsulfonyl)butanamide], the EC-1 (MIC) in assay [1] was > 64 µg/mL. In assay [2], this compound displayed a PA-7 (MIC) of 64 µg/mL.
On the same counts, the results for `CC(CCn1ccc(-c2ccsc2)cc1=O)(C(=O)NO)S(C)(=O)=O` (centres unmarked) [Example 107, N-hydroxy-2-methyl-2-(methylsulfonyl)-4-[2-oxo-4-(3-thienyl)pyridin-1(2H)-yl]butanamide] are 32 µg/mL and 16 µg/mL.
Take `Cc1ccc(N)cc1-c1ccn(CCC(C)(C(=O)NO)S(C)(=O)=O)c(=O)c1` (centres unmarked) [Example 108, 4-[4-(5-amino-2-methylphenyl)-2-oxopyridin-1(2H)-yl]-N-hydroxy-2-methyl-2-(methylsulfonyl)butanamide]: in assay [1], the EC-1 (MIC) is > 64 µg/mL. In addition, the PA-7 (MIC) in assay [2] was > 64 µg/mL.
Regarding `CC(CCn1ccc(-c2cncc3ccccc23)cc1=O)(C(=O)NO)S(C)(=O)=O` (centres unmarked) [Example 109, N-hydroxy-4-(4-isoquinolin-4-yl-2-oxopyridin-1(2H)-yl)-2-methyl-2-(methylsulfonyl)butanamide], in assay [1], the EC-1 (MIC) was > 64 µg/mL. Besides, the PA-7 (MIC) in assay [2] is > 64 µg/mL.
Take `CC(CCn1ccc(-c2cccc(N)c2)cc1=O)(C(=O)NO)S(C)(=O)=O` (centres unmarked) [Example 110, 4-[4-(3-aminophenyl)-2-oxopyridin-1(2H)-yl]-N-hydroxy-2-methyl-2-(methylsulfonyl)butanamide]: the EC-1 (MIC) in assay [1] was > 64 µg/mL. For the same compound, in assay [2], the PA-7 (MIC) amounted to 64 µg/mL.
On the same counts, the results for `CC(CCn1ccc(-c2cccc(-n3cccn3)c2)cc1=O)(C(=O)NO)S(C)(=O)=O` (centres unmarked) [Example 111, N-hydroxy-2-methyl-2-(methylsulfonyl)-4-{2-oxo-4-[3-(1H-pyrazol-1-yl)phenyl]pyridin-1(2H)-yl}butanamide] are > 64 µg/mL and > 64 µg/mL.
`Cc1cc(F)cc(-c2ccn(CCC(C)(C(=O)NO)S(C)(=O)=O)c(=O)c2)c1` (centres unmarked) [Example 112, 4-[4-(3-fluoro-5-methylphenyl)-2-oxopyridin-1(2H)-yl]-N-hydroxy-2-methyl-2-(methylsulfonyl)butanamide] returned an EC-1 (MIC) in assay [1] of 4 µg/mL. The PA-7 (MIC) in assay [2] turned out to be 4 µg/mL.
Turning to `Cc1cc(C(N)=O)ccc1-c1ccn(CCC(C)(C(=O)NO)S(C)(=O)=O)c(=O)c1` (centres unmarked) [Example 113, 4-{1-[4-(hydroxyamino)-3-methyl-3-(methylsulfonyl)-4-oxobutyl]-2-oxo-1,2-dihydropyridin-4-yl}-3-methylbenzamide], the EC-1 (MIC) in assay [1] was > 64 µg/mL. In addition, in assay [2], the PA-7 (MIC) was > 64 µg/mL.
Compound `CC(CCn1ccc(-c2cccc(Cl)c2)cc1=O)(C(=O)NO)S(C)(=O)=O` (centres unmarked) [Example 114, 4-[4-(3-chlorophenyl)-2-oxopyridin-1(2H)-yl]-N-hydroxy-2-methyl-2-(methylsulfonyl)butanamide] registered an EC-1 (MIC) in assay [1] of 2 µg/mL. Besides, the PA-7 (MIC) in assay [2] came to 4 µg/mL.
In assay [1], `Cc1ccc(-c2ccn(CCC(C)(C(=O)NO)S(C)(=O)=O)c(=O)c2)cc1N` (centres unmarked) [Example 115, 4-[4-(3-amino-4-methylphenyl)-2-oxopyridin-1(2H)-yl]-N-hydroxy-2-methyl-2-(methylsulfonyl)butanamide] yielded an EC-1 (MIC) of 64 µg/mL. In assay [2], this compound gave a PA-7 (MIC) of 16 µg/mL.
On the same counts, the results for `CN(C)c1ccc(-c2ccn(CCC(C)(C(=O)NO)S(C)(=O)=O)c(=O)c2)cn1` (centres unmarked) [Example 116, 4-[6-(dimethylamino)-2′-oxo-3,4′-bipyridin-1′(2′H)-yl]-N-hydroxy-2-methyl-2-(methylsulfonyl)butanamide] are 16 µg/mL and 64 µg/mL.
Taken in the same sequence, the figures for `CC(CCn1ccc(-c2cc(F)ccc2O)cc1=O)(C(=O)NO)S(C)(=O)=O` (centres unmarked) [Example 117, 4-[4-(5-fluoro-2-hydroxyphenyl)-2-oxopyridin-1(2H)-yl]-N-hydroxy-2-methyl-2-(methylsulfonyl)butanamide] were > 64 µg/mL and > 64 µg/mL.
In the case of `CC(CCn1ccc(-c2ccoc2)cc1=O)(C(=O)NO)S(C)(=O)=O` (centres unmarked) [Example 118, 4-[4-(3-furyl)-2-oxopyridin-1(2H)-yl]-N-hydroxy-2-methyl-2-(methylsulfonyl)butanamide], in assay [1], the EC-1 (MIC) was > 64 µg/mL. In assay [2], this compound had a PA-7 (MIC) of 64 µg/mL.
The compound `CC(CCn1ccc(-c2ccc(C3CCCCC3)cc2)cc1=O)(C(=O)NO)S(C)(=O)=O` (centres unmarked) [Example 119, 4-[4-(4-cyclohexylphenyl)-2-oxopyridin-1(2H)-yl]-N-hydroxy-2-methyl-2-(methylsulfonyl)butanamide] had an EC-1 (MIC) in assay [1] of 0.5 µg/mL. Also, the PA-7 (MIC) in assay [2] amounted to 16 µg/mL.
